Measured values taken from US8604029B2, “2-[(2-substituted)-indolizin-3-yl]-2-oxo-acetamide derivatives as antifungal agents” (F2G Ltd British Body Corporate, priority 2006, dated 2013).
≈ marks a conversion by molar mass, not a printed value.

Tested on: Aspergillus fumigatus
Test: MIC measurement, YAG medium
Type: cell-based
Details: Aspergillus fumigatus; YAG medium; MIC banded into grades; strain AF293; read-out: MIC A. fumigatus
Procedure: Between 1 and 5 mgs of compound were accurately weighed out into a sterile Eppendorf tube. The compound was dissolved in DMSO to give a solution containing […]. Tubes were stored at −20° C. until required.
On the day of testing thawed solutions were vortex mixed to ensure homogeneity. 30 μL of solution was removed and added to 570 μL of sterile water in a separate sterile Eppendorf. The thoroughly mixed solution was used to prepare a series of doubling dilutions in water, in a deep well plate. Thirteen replicate plates were prepared using a Minitrak by aspirating 20 μL from each well into eleven clear polystyrene 96 well plates.
Spores of Aspergillus spp. (Aspergillus fumigatus [two strains], Aspergillus terreus [two strains], Aspergillus niger and Aspergillus flavus) were harvested from cultures grown on Sabarauds agar for 5 days, and resuspended in PBS/Tween 80 to approx 1×10^7 cfu/mL. Other filamentous fungi (Absidia corymbifera, Fusarium solani, Rhizomucor, Scedosporium spp., Trichophyton spp.), were grown on Sabarauds agar for 2-10 days and spores/hyphae resuspended in PBS/Tween to give approx 1×10^7 cfu/mL. Candida species (Candida albicans, Candida glabrata, Candida krusei, Candida parapsilosis and Candida tropicalis) were grown on Sabarauds agar, cells were harvested from the agar using a sterile loop and resuspended in PBS/Tween 80 to approx 1×10^6 cfu/mL. Each organism suspension was diluted in RPMI medium, containing 2% glucose and 0.135 M MOPS buffer (pH 7.0) to 0.5-2×10^4 cfu/mL for Aspergillus spp. and other filamentous fungi and 0.5-2×10^3 cfu/mL for yeast. 80 μL of an organism suspension was added to each well of the plate containing drug dilutions.
This produced MIC plates with a drug range 50-0.05 mg/L and organism inocula of 1-2×10^4 cfu/mL for Aspergillus spp. and other filamentous fungi and 1-2×10^3 cfu/mL for yeasts. All plates were incubated for 24-48 hrs at 35° C. Growth was assessed by monitoring the optical density at 485 nm for each well. The MIC of a compound is the lowest drug concentration that inhibits growth of an organism by >80% compared with a drug free control. MICs are recorded as mg/L. Other growth media can be used for susceptibility testing, and the activity of the described compounds can also be assessed in a medium comprising 1% glucose, 1% ammonium chloride and 0.5% yeast extract (YAG medium). To perform MIC tests in this medium, dilutions of compounds are prepared in microtitre plates as described above. Fungal strains to be tested are grown and harvested in an identical manner to that described above, each organism suspension is then diluted in YAG medium to 0.5-2×10^4 cfu/mL for Aspergillus spp. and other filamentous fungi and 0.5-2×10^3 cfu/mL for yeast. 80 μL of an organism suspension was added to each well of the plate containing drug dilutions. This produced MIC plates with a drug range 50-0.05 mg/L and organism inocula of 1-2×10^4 cfu/mL for Aspergillus spp. and other filamentous fungi and 1-2×10^3 cfu/mL for yeasts. All plates were incubated for 24 hrs at 35° C. Growth was assessed by monitoring the optical density at 485 nm for each well. The MIC of a compound is the lowest drug concentration that inhibits growth of an organism by >70% compared with a drug free control. MICs are recorded as mg/L. In cases where the MIC of an organism is […] mg/L the MIC is repeated using a concentration range of 0.5-0.0005 mg/L. MIC tests in YAG medium have more clear-cut endpoints and have slightly lower MICs than those performed in RPMI medium.
The following organisms were tested: Absidia corymbifera, Aspergillus flavus, Aspergillus fumigatus AF293 and AF210, Aspergillus niger, Aspergillus terreus AT4 and AT49, Candida albicans, Candida glabrata, Candida krusei, Candida parapsilosis, Candida tropicalis, Fusarium solani, Rhizomucor sp., Scedosporium apiospermum, Scedosporium prolificans, Trichophyton mentagrophytes, and Trichophyton rubrum.

Compared with `CC(C)c1nc(C(C)(C)c2ccc(NC(=O)C(=O)c3c(-c4ccccc4)cc4ccccn34)cc2)cn1C` [Example 16, N-{4-[1-(2-isopropyl-1-methyl-1H-imidazol-4-yl)-1-methyl-ethyl]-phenyl}-2-oxo-2-(2-phenyl-indolizin-3-yl)-acetamide], `CC(C)c1ncc(C(C)(C)c2cccc(NC(=O)C(=O)c3c(-c4ccccc4)cc4ccccn34)c2)n1C` [Example 15, N-{3-[1-(2-Isopropyl-3-methyl-3H-imidazol-4-yl)-1-methyl-ethyl]-phenyl}-2-oxo-2-(2-phenyl-indolizin-3-yl)-acetamide] is higher in MIC: 1 to 10 µg/mL (≈ 1.98 to 19.8 µM) for the first, greater than 10 µg/mL for the second.

`O=C(Nc1ccc(N2CCN(S(=O)(=O)c3cccnc3)CC2)cc1)C(=O)c1c(-c2ccccc2)cc2ccccn12` [Example 51, 2-Oxo-2-(2-phenyl-indolizin-3-yl)-N-{4-[4-(pyridine-3-sulfonyl)-piperazin-1-yl]-phenyl}-acetamide] and `COCCN(C)c1ccc(N2CCN(c3ccc(NC(=O)C(=O)c4c(-c5ccccc5)cc5ccccn45)cc3)CC2)cn1` [Example 68, N-[4-(4-{6-[(2-Methoxy-ethyl)-methyl-amino]-pyridin-3-yl}-piperazin-1-yl)-phenyl]-2-oxo-2-(2-phenyl-indolizin-3-yl)-acetamide] cannot be ordered by MIC: less than 1 µg/mL for the first, less than 1 µg/mL for the second.

First: CC(C)c1nccn1CCOC(=O)C(C)(C)c1cccc(NC(=O)C(=O)c2c(-c3ccccc3)cc3ccccn23)c1 [Example 22, 2-Methyl-2-{3-[2-oxo-2-(2-phenyl-indolizin-3-yl)-acetylamino]-phenyl}-propionic acid 2-(2-isopropyl-imidazol-1-yl)-ethyl ester]
Second: Cc1cc(C)nc(OCCOc2ccc(NC(=O)C(=O)c3c(-c4ccccc4)cc4ccccn34)cc2)c1 [Example 65, N-{4-[2-(4,6-Dimethyl-pyridin-2-yloxy)-ethoxy]-phenyl}-2-oxo-2-(2-phenyl-indolizin-3-yl)-acetamide]
The MIC of the first is higher: greater than 10 µg/mL for the first, less than 1 µg/mL for the second.

Going from `COCc1cc(NC(=O)C(=O)c2c(-c3ccccc3)cc3ccccn23)ccc1N1CCN(c2cc(C)cc(C)n2)CC1` [Example 81, N-{4-[4-(4,6-Dimethyl-pyridin-2-yl)-piperazin-1-yl]-3-methoxymethyl-phenyl}-2-oxo-2-(2-phenyl-indolizin-3-yl)-acetamide] to `Cc1cc(C)nc(N2CCN(c3ccc(NC(=O)C(=O)c4c(C(C)(C)C)cc5ccccn45)cc3)CC2)c1` [Example 62, 2-(2-tert-Butyl-indolizin-3-yl)-N-{4-[4-(4,6-dimethyl-pyridin-2-yl)-piperazin-1-yl]-phenyl}-2-oxo-acetamide], the MIC rises from less than 1 µg/mL to greater than 10 µg/mL.

`C=C1CCN(c2ccc(NC(=O)C(=O)c3c(-c4cccnc4C)cc4ccccn34)cc2)CC1` [Example 46, N-[4-(4-Methylene-piperidin-1-yl)-phenyl]-2-[2-(2-methyl-pyridin-3-yl)-indolizin-3-yl]-2-oxo-acetamide] and `O=C(Nc1ccc(N2CCN(c3ccc(CN4CCOCC4)cc3)CC2)cc1)C(=O)c1c(-c2ccccc2)cc2ccccn12` [Example 56, N-{4-[4-(4-Morpholin-4-ylmethyl-phenyl)-piperazin-1-yl]-phenyl}-2-oxo-2-(2-phenyl-indolizin-3-yl)-acetamide] cannot be ordered by MIC: less than 1 µg/mL for the first, less than 1 µg/mL for the second.

`Cc1cc(C)nc(NCCN(C)c2ccc(NC(=O)C(=O)c3c(-c4ccccc4)cc4ccccn34)cc2)c1` [Example 69, N-(4-{[2-(4,6-dimethyl-pyridin-2-ylamino)-ethyl]-methyl-amino}-phenyl)-2-oxo-2-(2-phenyl-indolizin-3-yl)-acetamide] and `Cc1cc(C)nc(NCCNc2ccc(NC(=O)C(=O)c3c(-c4ccccc4)cc4ccccn34)cc2)c1` [Example 92, N-{4-[2-(4,6-dimethyl-pyridin-2-yl-amino)-ethylamino]-phenyl}-2-oxo-2-(2-phenyl-indolizin-3-yl)-acetamide] cannot be ordered by MIC: less than 1 µg/mL for the first, less than 1 µg/mL for the second.

For `CN1/C(=N/c2ccc(NC(=O)C(=O)c3c(-c4ccccc4)cc4ccccn34)cc2)OCC1(C)C` [Example 8, 2-oxo-2-(2-phenyl-indolizin-3-yl)-N-{4-[3,4,4-trimethyl-oxazolidin-(2Z)-ylideneamino]-phenyl}-acetamide], the MIC was greater than 10 µg/mL.
